This note sets out measurements from patent publication US12404232B2, “Compounds and compositions for intracellular delivery of therapeutic agents” (ModernaTX, Inc., priority 2015, dated 2025).

For the assay, the system named is mice. The assay can be described thus: Luc expression (bioluminescence, total flux) after intravenous administration to mice. The assay is classed as in vivo. As to conditions: for 6 h Lipid/MC3 G.M. Luc Expression / AUC (h*p/s): i.v. administration; for 6 h Lipid/MC3 G.M. Luc Expression: geometric mean; for AUC (h*p/s): total Luc flux (Table 3C); for AUC (p/s*h): Luc total flux (Table 3D). As to the method:
In order to monitor how effectively various nanoparticle compositions deliver therapeutic and/or prophylactics to targeted cells, different nanoparticle compositions including a particular therapeutic and/or prophylactic (for example, a modified or naturally occurring RNA such as an mRNA) are prepared and administered to rodent populations. Mice are intravenously, intramuscularly, intraarterially, or intratumorally administered a single dose including a nanoparticle composition with a formulation such as those provided in Example 3. In some instances, mice may be made to inhale doses. Dose sizes may range from 0.001 mg/kg to 10 mg/kg, where 10 mg/kg describes a dose including 10 mg of a therapeutic and/or prophylactic in a nanoparticle composition for each 1 kg of body mass of the mouse. A control composition including PBS may also be employed.
Upon administration of nanoparticle compositions to mice, dose delivery profiles, dose responses, and toxicity of particular formulations and doses thereof can be measured by enzyme-linked immunosorbent assays (ELISA), bioluminescent imaging, or other methods. For nanoparticle compositions including mRNA, time courses of protein expression can also be evaluated. Samples collected from the rodents for evaluation may include blood, sera, and tissue (for example, muscle tissue from the site of an intramuscular injection and internal tissue); sample collection may involve sacrifice of the animals.
The efficacy of the nanoparticle compositions presented in Table 1A was evaluated with a bioluminescence study. Formulations were administered intravenously to mice (n=6) at a dosage of 0.5 mg/kg (mpk) and bioluminescence measured at 3, 6, and 24 hour time points. The standard MC3 formulation and, in some instances, a control (e.g., a PBS control) were evaluated for comparison. […] In general, flux decreased as time progressed to less than 10% of the initial flux.
The total flux (measured by area under the curve, AUC) induced by administration of a formulation including a given lipid relative to that induced by administration of a formulation including MC3 was also measured for several lipids.
The tolerability and efficacy of nanoparticle compositions to non-human primates was also investigated using sample formulations including Compounds 18, 25, 26, and 48 and MC3 to determine if these compounds are differentiated in terms of protein expression. The formulations were prepared according to the standard MC3 formulation described above and included an hEPO mRNA. Table 30 includes details of the compositions tested, while Table 31 summarizes the relative expression of Luc and hEPO mRNA in mice and rats. Expression was measured 6 hours after administration.

With `CCCCCCCCC(CCCCCCCC)OC(=O)CCCCCCCN(CCO)CCCCCCCC(=O)OC1CCC(CCCCC)CC1` (stereo not drawn) [Compound 66, Heptadecan-9-yl 8-((2-hydroxyethyl)(8-oxo-8-((4-pentylcyclohexyl)oxy)octyl)amino)octanoate], the “6 h Lipid/MC3 G.M. Luc Expression” value turned out to be 5.23 and the “AUC (h*p/s)” value came to 6.76E+11 h*p/s.

Regarding `CCCCCCCCCC(=O)OCCCCCCCN(CCO)CCCCCCCC(=O)OC(CCCCCCCC)CCCCCCCC` [Compound 96, 7-((8-(Heptadecan-9-yloxy)-8-oxooctyl)(2-hydroxyethyl)amino)heptyl decanoate], the “AUC (p/s*h)” value is given as 1.209E+012 p/s*h.

As to `CCCCCCCCCOC(=O)CCCCCCCN(CCCCCCCC(=O)OC(CCCCCCCC)CCCCCCCC)CCN1CCN(C)CC1` [Compound 101, Heptadecan-9-yl 8-((2-(4-methylpiperazin-1-yl)ethyl)(8-(nonyloxy)-8-oxooctyl)amino)octanoate], the “6 h Lipid/MC3 G.M. Luc Expression” value is 0.011 and the “AUC (h*p/s)” value is given as 1.8E+09 h*p/s.

Regarding `CCCCCCCCCOC(=O)CCCCCCCN(CCCCCCCC(=O)OC(CCCCCCCC)CCCCCCCC)CCN1CCOCC1` [Compound 103, Heptadecan-9-yl 8-((2-morpholinoethyl)(8-(nonyloxy)-8-oxooctyl)amino)octanoate], the “6 h Lipid/MC3 G.M. Luc Expression” value turned out to be 0.171 and the “AUC (h*p/s)” value stood at 2.4E+10 h*p/s.

As for `CCCCCCCCCOC(=O)CCCCCCCN(CCO)CCCCCCCOP(=O)(OCCCCCCCC)OCCCCCCCC` [Compound 131, Nonyl 8-((7-((bis(octyloxy)phosphoryl)oxy)heptyl)(2-hydroxyethyl)amino)octanoate], the “6 h Lipid/MC3 G.M. Luc Expression” value stood at 1.27 and the “AUC (h*p/s)” value is 9.29E+10 h*p/s.

As for `CCCCCCCCOP(=O)(OCCCCCCCC)OCCCCCCCN(CCO)CCCCCCCC(=O)OC(C)CCCCCCCC` (stereo not drawn) [Compound 132, Decan-2-yl 8-((7-((bis(octyloxy)phosphoryl)oxy)heptyl)(2-hydroxyethyl)amino)octanoate], the “6 h Lipid/MC3 G.M. Luc Expression” value is listed as 0.112 and the “AUC (h*p/s)” value is given as 1.75E+10 h*p/s.

`CCCCCCCCC(CCCCCC)C(=O)OCCCCCCCCCN(CCO)CCCCCCCCCOC(=O)C(CCCCCC)CCCCCCCC` (stereo not drawn) [Compound 133, ((2-Hydroxyethyl)azanediyl)bis(nonane-9,1-diyl)bis(2-hexyldecanoate)]: the “6 h Lipid/MC3 G.M. Luc Expression” value came out at 4.18 and the “AUC (h*p/s)” value came out at 3.62E+11 h*p/s.

Consider `CCCCCCCCCOC(=O)CCCCCCCN(CCO)CCCCCCCCCOC(=O)C(CCCCCC)CCCCCCCC` (stereo not drawn) [Compound 134, 9-((2-Hydroxyethyl)(8-(nonyloxy)-8-oxooctyl)amino)nonyl 2-hexyldecanoate], for which the “6 h Lipid/MC3 G.M. Luc Expression” value was 3.27 and the “AUC (h*p/s)” value was 3.43E+11 h*p/s.

As to `CCCCCCCCC(C)OC(=O)CCCCCCCN(CCO)CCCCCCCOC(=O)C(CCCCCCCC)CCCCCCCC` (stereo not drawn) [Compound 135, 7-((8-(Decan-2-yloxy)-8-oxooctyl)(2-hydroxyethyl)amino)heptyl 2-octyldecanoate], the “6 h Lipid/MC3 G.M. Luc Expression” value came out at 10.5 and the “AUC (h*p/s)” value was 1.25E+12 h*p/s.

As for `CCCCCCCCC(CCCCCCCC)OC(=O)CCCCCCCN(CCO)CCCCCCCC(=O)N(C)CCCCCCCC` [Compound 145, Heptadecan-9-yl 8-((2-hydroxyethyl)(8-(methyl(octyl)amino)-8-oxooctyl)amino)octanoate], the “6 h Lipid/MC3 G.M. Luc Expression” value is reported as 0.979 and the “AUC (h*p/s)” value is reported as 8.1E+10 h*p/s.

`CCCCCCCCC(CCCCCCCC)OC(=O)CCCCCCCN(CCO)CCCCCC(=O)N(C)CCCCCCCC` [Compound 146, Heptadecan-9-yl 8-((2-hydroxyethyl)(6-(methyl(octyl)amino)-6-oxohexyl)amino)octanoate]: the “6 h Lipid/MC3 G.M. Luc Expression” value is listed as 0.012 and the “AUC (h*p/s)” value was 1.04E+09 h*p/s.

As for `CCCCCCCCCOC(=O)CCCCCCCN(CCO)CCCCCCCCCC(=O)OC(CCCCCC)CCCCCC` [Compound 147, Tridecan-7-yl 10-((2-hydroxyethyl)(8-(nonyloxy)-8-oxooctyl)amino)decanoate], the “6 h Lipid/MC3 G.M. Luc Expression” value worked out at 8.13 and the “AUC (h*p/s)” value was 5.63E+11 h*p/s.

For `CCCCCCCCC(CCCCCCCC)OC(=O)CCCCCCCN(CCO)CCCCCCCC(=O)OCC(CCCCCCC)OC` (stereo not drawn) [Compound 148, Heptadecan-9-yl 8-((2-hydroxyethyl)(8-((2-methoxynonyl)oxy)-8-oxooctyl)amino)octanoate], the “AUC (p/s*h)” value was 4.965E+011 p/s*h.

Regarding `CCCCCCCCC(CCCCCCCC)OC(=O)CCCCCCCN(C)CCCCCCCCCC(=O)OCCCCCCC` [Compound 149, Heptyl 10-((8-(heptadecan-9-yloxy)-8-oxooctyl)(methyl)amino)decanoate], the “AUC (p/s*h)” value is recorded as 1.057E+011 p/s*h.

In the case of `CCCCCCCCC(CCCCCCCC)OC(=O)CCCCCCCN(C)CCCCCCCCCCCC(=O)OCCCCC` [Compound 150, Pentyl 12-((8-(heptadecan-9-yloxy)-8-oxooctyl)(methyl)amino)dodecanoate], the “AUC (p/s*h)” value was determined as 2.704E+011 p/s*h.

`CCCCCCCCCC(=O)OCCCCCCCN(CCO)CCCCCCCOC(=O)C(CCCCCCCC)CCCCCCCC` [Compound 151, 7-((7-(Decanoyloxy)heptyl)(2-hydroxyethyl)amino)heptyl 2-octyldecanoate]: the “AUC (p/s*h)” value worked out at 7.010E+011 p/s*h.

On to `CCCCCCCCCOC(=O)CCCCCCCN(CCO)CCCCCCC/C=C\C(CCCCCCCC)CCCCCCCC` [Compound 152, Nonyl (Z)-8-((2-hydroxyethyl)(10-octyloctadec-8-en-1-yl)amino)octanoate], for which the “AUC (p/s*h)” value is listed as 2.855E+010 p/s*h.

Take `CCCCCCCCCOC(=O)CCCCCCCN(CCO)CCCCCCCCCC(CCCCCCCC)CCCCCCCC` [Compound 153, Nonyl 8-((2-hydroxyethyl)(10-octyloctadecyl)amino)octanoate]: the “AUC (p/s*h)” value is 2.697E+011 p/s*h.

Take `CCCCCCCCCOC(=O)CCCCCCCN(CCCCCCCC(=O)OC(CCCCCCCC)CCCCCCCC)CCOCCO` [Compound 154, Heptadecan-9-yl 8-((2-(2-hydroxyethoxy)ethyl)(8-(nonyloxy)-8-oxooctyl)amino)octanoate]: the “AUC (p/s*h)” value was determined as 5.560E+010 p/s*h.

For `CCCCCCCCC(CCCCCCCC)OC(=O)CCCCCCCN(CCO)CCCCCCCC(=O)OC(C)(C)C` [Compound 155, tert-Butyl 8-((8-(heptadecan-9-yloxy)-8-oxooctyl)(2-hydroxyethyl)amino)octanoate], the “AUC (p/s*h)” value was found to be 1.266E+011 p/s*h.

With `CCCCCCCCCOC(=O)CCCCCCCN(CCO)CCCCCCCC(=O)OC(C)(C)C` [Compound 158, tert-Butyl 8-((2-hydroxyethyl)(8-(nonyloxy)-8-oxooctyl)amino)octanoate], the “AUC (p/s*h)” value is 1.211E+007 p/s*h.

For the compound `CCCCCCCCCOC(=O)CCCCCCCN(CCO)CCN(CCO)CCCCCCCC(=O)OC(CCCCCCCC)CCCCCCCC` [Compound 159, Heptadecan-9-yl 8-((2-hydroxyethyl)(2-((2-hydroxyethyl)(8-(nonyloxy)-8-oxooctyl)amino)ethyl)amino)octanoate], the “AUC (p/s*h)” value was found to be 1.355E+008 p/s*h.
